# Reference: publication PMC12811501, “A plant-derived antimicrobial peptide with multiple mechanisms of action exhibiting antibacterial and antibiofilm activities comparable to or superior to polymyxin B” (Current Research in Microbial Sciences, 2025)
# Residues, ends and D or L forms follow the SMILES beside them.
# How the values were obtained:
# [1] = system: Pseudomonas aeruginosa (ATCC 27853); experiment: Minimal bactericidal concentration (MBC) assay; format: cell-based; conditions: short derivatives; 20 mM PPB at pH 7.4
# From the text: (§1) The Gram-positive strains Enterococcus faecalis (ATCC 29212), Staphylococcus aureus (HNCMO112011), and Listeria monocytogenes (ATCC 19111), and the Gram-negative strains Pseudomonas aeruginosa (ATCC 27853), Escherichia coli (ATCC 8739), Salmonella enterica (ATCC 13076), Klebsiella pneumoniae (NCTC 13440), and Acinetobacter baumannii (ATCC 17978) were obtained from ATCC (United States) and NCTC (National Collection of Type Cultures – England).
# (§2) Minimal bactericidal concentrations (MBC) of peptides and reference antibiotics were determined in 20 mM potassium phosphate buffer (PPB, pH 7.4) and Mueller–Hinton broth (MHB) as described by ([Jenei et al., 2020]). Briefly, bacterial cultures were grown to mid-log phase, washed, adjusted to OD₆₀₀ = 0.1 (∼10⁷ CFU/mL), added 10 μl of it into 100 μl mixture and incubated in 96-well plates with 2-fold serial dilutions of peptides or antibiotics. After incubation at 37 °C with shaking, bacterial viability was assessed by plating 5 μL aliquots on LB agar. MBC was defined as the lowest concentration yielding no colony growth. Experiments were done at least in three biological replicates.
# (§3) NCR169, its oxidized form (NCR169ox), and its variant in which the four cysteines were replaced with serines (NCR169-C9,15,28,33/S) (Table 1.A) were chemically synthesized with C-terminal amidation. These peptides were tested for antimicrobial activity against a panel of ESKAPE pathogens - Enterococcus faecalis, Staphylococcus aureus, Klebsiella pneumoniae, Acinetobacter baumannii, Pseudomonas aeruginosa, E. coli - as well as Listeria monocytogenes and Salmonella enterica. Peptides were applied to 10^6 log-phase bacterial cultures in a two-fold dilution series (25 - 0.1 µM) in potassium phosphate buffer (PPB) at pH 7.4. After three hours of incubation, 5 µl of each treatment was plated on LB agar and incubated overnight at 37 °C to assess bacterial survival. Minimal bactericidal concentrations (MBCs), defined as the lowest concentration eliminating bacterial growth, are presented in Table 1B.
# [2] = system: Listeria monocytogenes (ATCC 19111); experiment: Minimal bactericidal concentration (MBC) assay; format: cell-based; conditions: short derivatives; 20 mM PPB at pH 7.4
# From the text: as §1, §2, §3
# [3] = system: Salmonella enterica (ATCC 13076); experiment: Minimal bactericidal concentration (MBC) assay; format: cell-based; conditions: short derivatives; 20 mM PPB at pH 7.4
# From the text: as §1, §2, §3
# [4] = system: Klebsiella pneumoniae (NCTC 13440); experiment: Minimal bactericidal concentration (MBC) assay; format: cell-based; conditions: short derivatives; 20 mM PPB at pH 7.4
# From the text: as §1, §2, §3
# [5] = system: Enterococcus faecalis (ATCC 29212); experiment: Minimal bactericidal concentration (MBC) assay; format: cell-based; conditions: short derivatives; 20 mM PPB at pH 7.4
# From the text: as §1, §2, §3
# [6] = system: Staphylococcus aureus (HNCMO112011); format: cell-based; conditions: short derivatives; 20 mM PPB at pH 7.4
# From the text: as §1, §2, §3
# [7] = system: Acinetobacter baumannii (ATCC 17978); format: cell-based; conditions: short derivatives; 20 mM PPB at pH 7.4
# From the text: as §1, §2, §3
# [8] = Peptide-lipid overlay assay; format: binding; conditions: 2 μM peptide, 1 h
# Protocol: Membrane lipid strips (Echelon Biosciences, P-6002) were incubated for 1 h in blocking solution (3 % BSA in TBS-Tween 0.1 %) with gentle agitation followed by four 8-min washes in TBS-Tween. Then, strips were incubated with 2 μM of NCR169C17–38 in blocking solution for 1 h. Not bound peptide was washed off by four 8-min washes in TBS-Tween. The bound StrepII-tagged peptide was then detected on the strips using the same procedure described for the dot blot, except that chemiluminescence was visualized with an iBright™ FL1500 Imaging System (Invitrogen).
# As shown above, NCR169C17–38 causes rapid damage to bacterial membranes. Since membrane structure is largely determined by its lipid composition, we next investigated the ability of NCR169C17–38-StrepII to bind membrane lipids in vitro using a peptide-lipid overlay assay (Supplementary Fig. 3.A). NCR169C17–38-StrepII bound to several anionic lipids, including phosphoinositides, phosphatidic acid, phosphatidylserine, and cardiolipin - a major constituent of bacterial membranes.
# [9] = 25, 12.5, 6.3, 3.1 µM in PPB, overnight at room temperature or 80 °C for 20 min; StrepII detection
# Protocol: For heat stability test serial dilutions of the NCR169C17–38-StrepII peptide were prepared in PPB at concentrations of 25, 12.5, 6.3, 3.1 µM, following the same protocol used in the antimicrobial assay. One set of samples was incubated overnight at 37 °C with shaking, another set was subjected to heat stress at 80 °C for 20 min, while one set was freshly prepared. Dot-blot analysis was performed by spotting 5 µl of each peptide solution onto a 0.22 µm nitrocellulose membrane (Bio-Rad). Detection of the StrepII-tagged peptide was carried out using the Precision Protein StrepTactin-HRP conjugate (Bio-Rad), following the manufacturer’s recommended protocol. Signal development was achieved using the Clarity Western ECL Substrate (Bio-Rad), with the membrane incubated for 5 min at room temperature, followed by exposure to Fuji Medical X-ray film for visualization.
# Peptide dilutions (25, 12.5, 6.3, and 3.1 µM) in PPB were either incubated overnight at room temperature (RT) or heated at 80 °C for 20 min.
# E. coli = experiment: Antimicrobial test after heat stress or storage of the peptide; format: cell-based, Escherichia coli; conditions: then tested against E. coli, 3.1 µM = lowest dilution tested
# Protocol: (B) NCR169C17-38-StrepII remains active against E. coli even at 3.1 µM after 20 minutes of treatment at 80 °C or incubation at room temperature for 24 hrs. Bacterial viability was assessed by plating 5 µL aliquots after treatment on LB agar. Only non-treated control cells could grow.
Molecule,MBC P. a. [1],MBC L. m. [2],MBC S. e. [3],MBC K. p. [4],MBC E. f. [5],MBC S. a. [6],MBC A. b. [7],binding to phosphatidylglycerol (PG) on lipid strip [8],"binding to anionic lipids on lipid strip ([8]; phosphoinositides, phosphatidic acid, phosphatidylserine, cardiolipin)",peptide stability by dot blot [9],lowest concentration still bactericidal after heat stress (E. coli; peptide in PPB heated 20 minutes at 80 °C),lowest concentration still bactericidal after storage (E. coli; peptide in PPB incubated at room temperature for 24 hrs (overnight))
"PLFKIWKCVENVCVLWYK [NCR169_21–38, shorter C-terminal fragment of NCR169C17–38]",- (lack of bactericidal activity up to 25 µM),- (lack of bactericidal activity up to 25 µM),- (lack of bactericidal activity up to 25 µM),- (lack of bactericidal activity up to 25 µM),- (lack of bactericidal activity up to 25 µM),- (lack of bactericidal activity up to 25 µM),,,,,,
"KCVENVCVLWYK [NCR169_27–38, shorter C-terminal fragment of NCR169C17–38]",- (lack of bactericidal activity up to 25 µM),- (lack of bactericidal activity up to 25 µM),- (lack of bactericidal activity up to 25 µM),- (lack of bactericidal activity up to 25 µM),- (lack of bactericidal activity up to 25 µM),- (lack of bactericidal activity up to 25 µM),- (lack of bactericidal activity up to 25 µM),,,,,
CC[C@H](C)[C@H](NC(=O)[C@H](CCCCN)NC(=O)[C@H](Cc1ccccc1)NC(=O)[C@H](CC(C)C)NC(=O)[C@@H]1CCCN1C(=O)[C@H](CCCCN)NC(=O)[C@H](CCCCN)NC(=O)[C@H](CO)NC(=O)[C@@H](N)CCCCN)C(=O)N[C@@H](Cc1c[nH]c2ccccc12)C(=O)N[C@@H](CCCCN)C(=O)N[C@@H](CS)C(=O)N[C@H](C(=O)N[C@@H](CCC(=O)O)C(=O)N[C@@H](CC(N)=O)C(=O)N[C@H](C(=O)N[C@@H](CS)C(=O)N[C@H](C(=O)N[C@@H](CC(C)C)C(=O)N[C@@H](Cc1c[nH]c2ccccc12)C(=O)N[C@@H](Cc1ccc(O)cc1)C(=O)N[C@@H](CCCCN)C(=O)N[C@@H](Cc1c[nH]c2ccccc12)C(=O)N[C@@H](CO)C(=O)N[C@@H](Cc1c[nH]cn1)C(=O)N1CCC[C@H]1C(=O)N[C@@H](CCC(N)=O)C(=O)N[C@@H](Cc1ccccc1)C(=O)N[C@@H](CCC(=O)O)C(=O)N[C@@H](CCCCN)C(N)=O)C(C)C)C(C)C)C(C)C [NCR169C17–38-StrepII] (H-KSKKPLFKIWKCVENVCVLWYKWSHPQFEK-NH2; N-terminus assumed),,,,,,,,did not bind,bound,confirmed its stability,≤ 3.1 µM,≤ 3.1 µM
